From ChEMBL document CHEMBL1144866, “Surface descriptors for protein-ligand affinity prediction” (J Med Chem, 2003)

Experiment: Inhibitory activity against glycogen phosphorylase, activity expressed as -logKi

Row | Compound | -Log Ki
1 | CS(=O)(=O)OCC1OC(CO)C(O)C(O)C1O (configuration not stated) | 2.319
2 | CC(=O)NCC(=O)N[C@H]1O[C@H](CO)[C@@H](O)[C@H](O)[C@H]1O | 3.004
3 | O=C(CBr)N[C@H]1O[C@@H](CO)[C@@H](O)[C@H](O)[C@@H]1O | 4.357
4 | CCCC(=O)N[C@H]1O[C@H](CO)[C@@H](O)[C@H](O)[C@H]1O | 4.027
5 | CCC(=O)N[C@H]1O[C@H](CO)[C@@H](O)[C@H](O)[C@H]1O | 4.409
6 | NCC1OC(CO)C(O)C(O)C1O (stereo in doubt; form 2) | 1.775
7 | NC(=O)C1OC(CO)C(O)C(O)C1O (configuration not stated) | 3.357
8 | NCC(=O)N[C@H]1O[C@@H](CO)[C@@H](O)[C@H](O)[C@@H]1O | 3.432
9 | CC(=O)N[C@H]1O[C@H](CO)[C@@H](O)[C@H](O)[C@H]1O | 4.495
10 | NC(=O)N[C@H]1O[C@H](CO)[C@@H](O)[C@H](O)[C@H]1O | 3.854

Now from value to compound:

Row | -Log Ki | Compound
11 | 2.824 | OCC1OC(CO)C(O)C(O)C1O (configuration not stated)
12 | 3.836 | NN1C(=O)N[C@@]2(O[C@@H](CO)[C@@H](O)[C@H](O)[C@@H]2O)C1=O
13 | 4.347 | O=C(CCl)N[C@H]1O[C@H](CO)[C@@H](O)[C@H](O)[C@H]1O
14 | 1.462 | NCC1OC(CO)C(O)C(O)C1O (stereo in doubt; form 1)
15 | 4.796 | COC(=O)N[C@]1(C(N)=O)O[C@H](CO)[C@@H](O)[C@H](O)[C@H]1O
16 | 4.092 | O=C(N[C@H]1O[C@H](CO)[C@@H](O)[C@H](O)[C@H]1O)c1ccccc1
17 | 3.796 | CNC(=O)C1OC(CO)C(O)C(O)C1O (configuration not stated)
